# From ChEMBL document CHEMBL6074620, “Discovery of a triphenylamine-based ligand that targets mitochondrial DNA G-quadruplexes and activates the cGAS-STING immunomodulatory pathway” (Eur J Med Chem, 2024)
# The source made the active and inactive calls. The rule behind the calls is not given here.
# Experiments:
# Mus musculus [1] = test: Immunostimulatory activity in female BALB/c mouse implanted with mouse 4T1 cells assessed as tumor infiltrating lymphocytes by measuring increase in CD4+ and CD8+T cells at 2.5 mg/kg, sc by immunohistochemistry analysis; type: functional, organism-based
# 4T1 [2] = test: Activation of cGAS-STING signaling pathway in mouse 4T1 cells assessed as increase in IL-6 level up to 5 uM by ELISA analysis; type: cell-based; details: filed as activator
# 4T1 [3] = test: Induction of mitochondrial damage in mouse 4T1 cells assessed as decrease in ND4 level at 5 uM in presence of DDC by qPCR analysis; type: functional, cell-based
# 4T1 [4] = test: Induction of ROS generation in mouse 4T1 cells assessed as increase green fluorescence by DCFH-DA staining based analysis; type: functional, cell-based
# 4T1 [5] = test: Induction of mitochondrial damage in mouse 4T1 cells assessed as decrease in CytB level at 5 uM in presence of NAC by qPCR analysis; type: functional, cell-based
# Quadruplex DNA [6] = test: Binding affinity to 3-terminal mt6363 DNA (unknown origin) assessed as dissociation constant by TAMRA-labeled G4 quenching assay; type: nucleic-acid assay
# 4T1 [7] = test: Antitumor activity against mouse 4T1 cells implanted with female BALB/c mouse assessed as decrease tumor weight at 2.5 mg/kg, sc administered for every 3 days for 2 weeks and measured on day 21; type: functional, organism-based; details: time 21.0 day
# Quadruplex DNA [8] = test: Binding affinity to 5-terminal mt6363 DNA (unknown origin) assessed as dissociation constant by TAMRA-labeled G4 quenching assay; type: nucleic-acid assay
# Mus musculus [9] = test: Immunostimulatory activity in female BALB/c mouse implanted with mouse 4T1 cells assessed as downregulation of M2 macrophages level 2.5 mg/kg, sc by flow cytometry analysis; type: functional, organism-based
# Mitochondrial membrane = test: Disruption of mitochondrial membrane potential in mouse 4T1 cells assessed as decrease red fluorescence at 0 to 5 uM by JC-1 staining based analysis; details: dose 0-5 µM
# 4T1 [10] = test: Induction of ROS generation in mouse 4T1 cells assessed as increase 8-OG level in presence of 8-oxoguanine by DAPI staining based immunofluorescence based analysis; type: functional, cell-based
# [11] = Toxicity in female BALB/c mouse implanted with mouse 4T1 cells assessed as change in body weight at 2.5 mg/kg, iv administered every 3 days for 2 weeks from day 7; type: organism-based; details: in vivo, 336 h
# 4T1 [12] = test: Activation of cGAS-STING pathway in mouse 4T1 cells assessed as increase in cGAS expression level by Western blot analysis; type: cell-based; details: filed as activator, dose <= 5.0 µM
# 4T1 [13] = test: Activation of cGAS-STING signaling pathway in mouse 4T1 cells assessed as increase in IL-6 level at 5 uM by qPCR analysis; type: cell-based; details: filed as activator
# [14] = Toxicity in female BALB/c mouse implanted with mouse 4T1 cells assessed as change in kidney weight at 2.5 mg/kg, sc measured after 21 days by Hematoxylin-Eosin staining based analysis; type: organism-based; details: in vivo, 504 h, time 21 day
# Mus musculus [15] = test: In-vivo activation of cGAS-STING signaling pathway in female BALB/c mouse assessed as increase in TNF-alpha level at 2.5 mg/kg, sc by ELISA analysis; type: functional, organism-based
# 4T1 [16] = test: Induction of ROS generation in mouse 4T1 cells assessed as decrease ROS level at 5 uM in presence of NAC by […] analysis; type: functional, cell-based
# [17] = Toxicity in female BALB/c mouse implanted with mouse 4T1 cells assessed as change in liver weight at 2.5 mg/kg, sc measured after 21 days by Hematoxylin-Eosin staining based analysis; type: organism-based; details: in vivo, 504 h, time 21 day
# 4T1 [18] = test: Induction of mouse 4T1 cell maturation assessed as increase in CD80 positive cells by flow cytometric analysis; type: functional, cell-based; details: dose <= 5.0 µM
# 4T1 [19] = test: Induction of mitochondrial damage in mouse 4T1 cells assessed as decrease in ND4 level at 5 uM in presence of NAC by qPCR analysis; type: functional, cell-based
# Mus musculus [20] = test: Immunostimulatory activity in female BALB/c mouse implanted with mouse 4T1 cells assessed as increase in number of activated CD8+ T cells in spleen 2.5 mg/kg, sc by flow cytometry; type: functional, organism-based
# 4T1 [21] = test: Induction of mitochondrial damage in mouse 4T1 cells assessed as increase in Dloop2 level by qPCR analysis; type: functional, cell-based
# 4T1 [22] = test: Induction of apoptosis in mouse 4T1 cells at 5 uM by Annexin V/PI staining based flow cytometry analysis; type: functional, cell-based
# 4T1 [23] = test: Activation of cGAS-STING signaling pathway in mouse 4T1 cells assessed as increase in TNF-alpha level at 5 uM by qPCR analysis; type: cell-based; details: filed as activator
# 4T1 [24] = test: Induction of apoptosis in mouse 4T1 cells assessed as decrease in PARP level at 5 uM by Western blotting analysis; type: functional, cell-based
# Mus musculus [25] = test: Immunostimulatory activity in female BALB/c mouse implanted with mouse 4T1 cells assessed as change in CD4+ T cells in spleen 2.5 mg/kg, sc by flow cytometry; type: functional, organism-based
# [26] = Toxicity in female BALB/c mouse implanted with mouse 4T1 cells assessed as change in lungs weight at 2.5 mg/kg, sc measured after 21 days by Hematoxylin-Eosin staining based analysis; type: organism-based; details: in vivo, 504 h, time 21 day
# 4T1 [27] = test: Activation of cGAS-STING signaling pathway in mouse 4T1 cells assessed as increase in ISG54 level at 5 uM by qPCR analysis; type: cell-based; details: filed as activator
# 4T1 [28] = test: Cytotoxicity against mouse 4T1 cells assessed as reduction in cell viability incubated for 24 hrs by CCK-8 assay; type: functional, cell-based; details: 4T1, 24 h
# [29] = Drug localization in mitochondria of mouse 4T1 cells assessed as signal colocalization incubated for 30 mins by MitoTracker Green staining based analysis; type: ADME; details: 4t1, 0.5 h
# 4T1 [30] = test: Induction of mitochondrial damage in mouse 4T1 cells assessed as dispersion of fluorescence Mitotracker red incubated for 1 hrs and measured after 24 hrs by immunofluorescence analysis; type: functional, cell-based; details: time 25.0 hrs
# 4T1 [31] = test: Antitumor activity against mouse 4T1 cells implanted with female BALB/c mouse assessed as effect on caspase-3 level in tumor at 2.5 mg/kg, sc measured for 21 days; type: functional, organism-based; details: time 21.0 day
smiles,measurement,setting,value
COc1ccc(N(c2ccc(/C=C/C3=[N+](C)c4ccc5ccccc5c4C3(C)C)cc2)c2ccc(OC)cc2)cc1.[I-],Activity,Mus musculus [1],Active
same,Activity,4T1 [2],Active
same,Activity,4T1 [3],Active
same,Activity,4T1 [4],Dose-dependent-effect
same,Activity,4T1 [5],Active
same,Kd,Quadruplex DNA [6],1900 nM
same,Activity,4T1 [7],Active
same,Kd,Quadruplex DNA [8],2400 nM
same,Activity,Mus musculus [9],Active
same,Activity,Mitochondrial membrane,Active
same,Activity,4T1 [10],Active
same,Activity,[11],Non-toxic
same,Activity,4T1 [12],Dose-dependent-effect
same,Activity,4T1 [13],Active
same,Activity,[14],Non-toxic
same,Activity,Mus musculus [15],Active
same,Activity,4T1 [16],Active
same,Activity,[17],Non-toxic
same,Activity,4T1 [18],Dose-dependent-effect
same,Activity,4T1 [19],Active
same,Activity,Mus musculus [20],Active
same,Activity,4T1 [21],Active
same,Activity,4T1 [22],Active
same,Activity,4T1 [23],Active
same,Activity,4T1 [24],Active
same,Activity,Mus musculus [25],Active
same,Activity,[26],Non-toxic
same,Activity,4T1 [27],Active
same,IC50,4T1 [28],1900 nM
same,Drug uptake,[29],Active
same,Activity,4T1 [30],Active
same,Activity,4T1 [31],Active
